Laboratory results published in patent US20150353530A1 (CORTENDO AB (PUBL), priority 2013, published 2015).

Assays:
Assay type in all cases: cell-based
recombinant CYP-11 = molecular target: T1, recombinant CYP-11 (Homo sapiens, UniProt P15538); assay: Cyp11 assay: AD293 cells over-expressing recombinant CYP-11, cortisol formation from 11-deoxycortisol by LC/MS; conditions: eight concentrations 10 μM to 4.5 nM
T1 construct: expressed in transfected cells
T1 sequence (P15538 25-503): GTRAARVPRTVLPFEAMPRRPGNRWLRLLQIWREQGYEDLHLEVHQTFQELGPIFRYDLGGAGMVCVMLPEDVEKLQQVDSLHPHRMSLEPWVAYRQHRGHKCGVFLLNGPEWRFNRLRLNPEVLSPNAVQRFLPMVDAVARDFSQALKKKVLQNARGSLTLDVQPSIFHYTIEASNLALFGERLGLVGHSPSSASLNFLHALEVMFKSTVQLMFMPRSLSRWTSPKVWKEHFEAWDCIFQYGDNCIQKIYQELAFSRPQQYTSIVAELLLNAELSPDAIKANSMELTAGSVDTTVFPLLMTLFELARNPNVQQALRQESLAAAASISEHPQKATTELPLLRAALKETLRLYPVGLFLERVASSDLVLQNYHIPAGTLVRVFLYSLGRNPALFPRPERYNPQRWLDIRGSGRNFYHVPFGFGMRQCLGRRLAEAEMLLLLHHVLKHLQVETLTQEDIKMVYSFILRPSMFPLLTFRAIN
Protocol: (§1) AD293 cells that stably over-express recombinant CYP-11 were seeded in 96 well plates coated with poly D-lysine (15,000 cell per well) and incubated at 37° C. for 24 hours in Dulbecco's Modified Eagle Medium (DMEM) with Fetal Bovine Serum (FBS) that is stripped of hormones by charcoal treatment. The media is then removed, the cells are washed once with Phosphate buffer saline solution, and 50 μL Dulbecco's Modified Eagle Medium (DMEM) with Fetal Bovine Serum (FBS) that is stripped of hormones by charcoal treatment is added. Compounds of the disclosure are then added to the wells in eight concentration spanning 10 μM to 4.5 nM, and the plates are incubated for an additional 60 minutes at 37° C. 11-deoxycortisol is then added (2.0 μM) and the plates are incubated for an additional 12 hours at 37° C. After incubation, 50 uL of the supernatant (medium) is transferred into a fresh plate and 150 uL of an acetonitrile solution containing 200 ng/ml of Telmisartan is added. The sample is mixed and then placed in a centrifuge at 2000 rpm for 5 minutes.

recombinant CYP-21 = molecular target: T2, recombinant CYP-21 (Homo sapiens, UniProt P08686); assay: Cyp21 assay: AD293 cells over-expressing recombinant CYP-21, 11-deoxycortisol formation from 17α-OH Progesterone by LC/MS; conditions: eight concentrations 10 μM to 4.5 nM
T2 construct: expressed in transfected cells
T2 sequence (P08686 1-495): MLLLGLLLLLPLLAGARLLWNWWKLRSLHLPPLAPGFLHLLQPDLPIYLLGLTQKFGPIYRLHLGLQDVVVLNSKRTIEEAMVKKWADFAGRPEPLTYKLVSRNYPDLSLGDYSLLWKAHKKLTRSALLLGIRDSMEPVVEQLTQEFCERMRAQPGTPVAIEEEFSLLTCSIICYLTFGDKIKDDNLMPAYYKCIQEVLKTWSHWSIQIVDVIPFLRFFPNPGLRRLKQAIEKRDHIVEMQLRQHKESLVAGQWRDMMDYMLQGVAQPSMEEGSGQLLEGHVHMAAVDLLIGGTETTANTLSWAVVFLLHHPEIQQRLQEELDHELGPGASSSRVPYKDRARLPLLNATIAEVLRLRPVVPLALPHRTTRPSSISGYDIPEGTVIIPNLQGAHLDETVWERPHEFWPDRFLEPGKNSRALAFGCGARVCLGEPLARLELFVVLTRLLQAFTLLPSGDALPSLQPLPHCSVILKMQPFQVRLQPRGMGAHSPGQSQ
Protocol: as §1, with “Cyp21 assay protocol: AD293” for “AD293”, “CYP-21” for “CYP-11”, “(10,000” for “(15,000”, “17α-OH Progesterone” for “11-deoxycortisol”, “(1.0” for “(2.0”, “45 minutes” for “12 hours”

recombinant CYP-17 = molecular target: T3, recombinant CYP-17 (Homo sapiens, UniProt P05093); assay: Cyp17 assay: AD293 cells over-expressing recombinant CYP-17, 3H-acetic acid release from [21-3H] 17α-hydroxyl-Pregnenolone; conditions: for IC50: AD293 cells, eight concentrations 10 μM to 4.5 nM
T3 construct: expressed in transfected cells
T3 sequence (P05093 1-508): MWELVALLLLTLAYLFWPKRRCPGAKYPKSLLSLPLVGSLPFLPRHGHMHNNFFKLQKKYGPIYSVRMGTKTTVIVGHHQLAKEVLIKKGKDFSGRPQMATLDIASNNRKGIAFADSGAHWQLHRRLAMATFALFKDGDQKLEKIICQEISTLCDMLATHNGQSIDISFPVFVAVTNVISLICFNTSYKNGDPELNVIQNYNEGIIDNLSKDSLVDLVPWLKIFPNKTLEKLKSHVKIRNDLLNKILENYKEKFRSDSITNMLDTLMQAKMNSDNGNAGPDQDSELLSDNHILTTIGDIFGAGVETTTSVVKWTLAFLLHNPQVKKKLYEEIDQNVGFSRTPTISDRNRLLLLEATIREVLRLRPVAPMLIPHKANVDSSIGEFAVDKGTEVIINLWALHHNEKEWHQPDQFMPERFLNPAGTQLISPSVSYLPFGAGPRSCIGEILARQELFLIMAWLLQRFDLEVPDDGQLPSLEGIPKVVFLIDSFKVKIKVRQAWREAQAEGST
Protocol: Cyp17 assay protocol: AD293 cells that stably over-express recombinant CYP-17 were seeded in 96 well plates coated with poly D-lysine (15,000 cell per well) and incubated at 37° C. for 24 hours in Dulbecco's Modified Eagle Medium (DMEM) with Fetal Bovine Serum (FBS) that is stripped of hormones by charcoal treatment. The media is then removed, the cells are washed once with Phosphate buffer saline solution, and 50 μL Dulbecco's Modified Eagle Medium (DMEM) with Fetal Bovine Serum (FBS) that is stripped of hormones by charcoal treatment is added. Compounds of the disclosure are then added to the wells in eight concentration spanning 10 μM to 4.5 nM, and the plates are incubated for an additional 60 minutes at 37° C. [21-^3H] […] The media is then collected, 200 μL of chloroform is added, and the mixture is shaken for 1 hour. The aqueous layer is then separated and analyzed for the presence of ^3H-acetic acid using a Perkin Elmer Topcount NXT to determine IC50s of the compounds of the disclosure.

SMILES | IC50 (recombinant CYP-11) | IC50 (recombinant CYP-21) | inhibition at 0.1 µM (recombinant CYP-17; AD293, 4 h, read-out: Cyp17 % @ 0.1 μM (printed in the Cyp17 IC50 column)) | IC50 (recombinant CYP-17)
COC(=O)N1CCN(c2ccc(OC[C@@H]3CO[C@@](Cn4ccnc4)(c4ccc(Cl)cc4Cl)O3)cc2)CC1 (racemic) [Entry 1] | 100 nM | 160 nM | 83% | –
COCCOC(=O)N1CCN(c2ccc(OC[C@@H]3CO[C@@](Cn4ccnc4)(c4ccc(Cl)cc4Cl)O3)cc2)CC1 (racemic) [Entry 2] | 100 nM | 230 nM | – | 100 nM
CN(C)C(=O)N1CCN(c2ccc(OC[C@@H]3CO[C@@](Cn4ccnc4)(c4ccc(Cl)cc4Cl)O3)cc2)CC1 (racemic) [Entry 3] | 100 nM | – | – | 100 nM
Clc1ccc([C@]2(Cn3ccnc3)OC[C@@H](COc3ccc(N4CCN(C5=NCCO5)CC4)cc3)O2)c(Cl)c1 (racemic) [Entry 34] | 148 nM | 423 nM | – | 30 nM
CCNC(=O)N1CCN(c2ccc(OC[C@@H]3CO[C@@](Cn4ccnc4)(c4ccc(Cl)cc4Cl)O3)cc2)CC1 [Entry 12] | 52 nM | 690 nM | – | 35 nM
CCOC(=O)CNC(=O)N1CCN(c2ccc(OC[C@@H]3CO[C@@](Cn4ccnc4)(c4ccc(Cl)cc4Cl)O3)cc2)CC1 [Entry 13] | 66 nM | 710 nM | – | 25 nM
CCNC(=O)N1CCN(c2ccc(OC[C@H]3CO[C@](Cn4ccnc4)(c4ccc(Cl)cc4Cl)O3)cc2)CC1 [Entry 14] | 500 nM | – | – | 43 nM
CCOC(=O)CNC(=O)N1CCN(c2ccc(OC[C@H]3CO[C@](Cn4ccnc4)(c4ccc(Cl)cc4Cl)O3)cc2)CC1 [Entry 15] | 530 nM | 2460 nM | – | 310 nM
COC(=O)[C@@H](NC(=O)N1CCN(c2ccc(OC[C@@H]3CO[C@@](Cn4ccnc4)(c4ccc(Cl)cc4Cl)O3)cc2)CC1)C(C)C [Entry 16] | 100 nM | 244 nM | – | 10 nM
COC(=O)[C@H](Cc1ccccc1)NC(=O)N1CCN(c2ccc(OC[C@@H]3CO[C@@](Cn4ccnc4)(c4ccc(Cl)cc4Cl)O3)cc2)CC1 [Entry 17] | 100 nM | 360 nM | – | 43 nM
COC(=O)[C@@H](NC(=O)N1CCN(c2ccc(OC[C@H]3CO[C@](Cn4ccnc4)(c4ccc(Cl)cc4Cl)O3)cc2)CC1)C(C)C [Entry 18] | 110 nM | 720 nM | – | 137 nM
COC(=O)[C@H](Cc1ccccc1)NC(=O)N1CCN(c2ccc(OC[C@H]3CO[C@](Cn4ccnc4)(c4ccc(Cl)cc4Cl)O3)cc2)CC1 [Entry 19] | 240 nM | 740 nM | – | 250 nM
O=S(=O)(CC(F)(F)F)N1CCN(c2ccc(OC[C@@H]3CO[C@@](Cn4ccnc4)(c4ccc(Cl)cc4Cl)O3)cc2)CC1 [Entry 20] | 70 nM | 78 nM | – | 610 nM
CCCS(=O)(=O)N1CCN(c2ccc(OC[C@@H]3CO[C@@](Cn4ccnc4)(c4ccc(Cl)cc4Cl)O3)cc2)CC1 [Entry 22] | 91 nM | 128 nM | – | 8 nM
CC(C)CS(=O)(=O)N1CCN(c2ccc(OC[C@@H]3CO[C@@](Cn4ccnc4)(c4ccc(Cl)cc4Cl)O3)cc2)CC1 [Entry 23] | 388 nM | 249 nM | – | 45 nM
O=S(=O)(CCC(F)(F)F)N1CCN(c2ccc(OC[C@@H]3CO[C@@](Cn4ccnc4)(c4ccc(Cl)cc4Cl)O3)cc2)CC1 [Entry 27] | 10000 nM | 373 nM | – | 240 nM
O=S(=O)(CC(F)F)N1CCN(c2ccc(OC[C@@H]3CO[C@@](Cn4ccnc4)(c4ccc(Cl)cc4Cl)O3)cc2)CC1 [Entry 29] | 280 nM | 80 nM | – | 11 nM
N=C(N)N1CCN(c2ccc(OC[C@@H]3CO[C@@](Cn4ccnc4)(c4ccc(Cl)cc4Cl)O3)cc2)CC1 [Entry 33] | 1900 nM | 10000 nM | – | 340 nM
